From paper PMC7413254 (Nature Communications, 2020)
Where two headings read alike, the source gives them in different places. Where no end group is shown, it is not given here.

Experiments:
Format in all cases: cell-based
PfCRT^Dd2 [1] = molecular target: T1, PfCRT^Dd2 (Plasmodium falciparum, UniProt Q9N623, A220S/I356T/K76T/M74I/N326S/N75E/Q271E/R371I); assay: [3H]CQ uptake into Xenopus oocytes, cis-inhibition by unlabelled solute; conditions: read-out: PfCRT-mediated [3H]CQ transport, cis-inhibition (% PfCRTDd2 control)
Method in brief: (§1)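 Washed oocytes (ten per treatment) were exposed to label in pH 5.5 ND96 for 1.5 h at 27.5 °C. Buffer was then removed, cells rinsed in ice-cold ND96, lysed in SDS and counted.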

PfCRT^Ecu1110 [2] = molecular target: T2, PfCRT^Ecu1110 (Plasmodium falciparum, UniProt Q9N623, A220S/I356L/K76T/N326D); assay: as above
Method in brief: as §1

PfCRT^3D7 = PfCRT^3D7 (Plasmodium falciparum, UniProt Q8IBZ9); assay: cell-based; conditions: for [3H]CQ transport, PfCRT3D7 (% PfCRTDd2 control): 45 mM VF-6 injected, 96 mM Na+ injection buffer; for activity at 2000 µM: read-out: [3H]CQ transport, PfCRT3D7, trans-stimulation, solute 2 mM; for [3H]CQ transport, PfCRT3D7 (% PfCRT3D7 control): solute 45 mM injected (estimated intracellular)
Method in brief: (§2)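 Transport measured in Xenopus oocytes expressing the transporters, 1.5 h at 27.5 °C in ND96 pH 5.5 unless noted. For trans-stimulation, VF-6 injected in 25 nL ND96 at pH 5.0–7.0 or Na^+-free (choline) buffer; intracellular levels based on ~400 nL oocyte volume. Ten oocytes per treatment, ≥4 experiments.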

PfCRT^Dd2 [3] = molecular target: T1, PfCRT^Dd2; assay: cell-based; conditions: […]; for activity at 2000 µM: pH 5.5, read-out: [3H]CQ transport, PfCRTDd2, trans-stimulation, solute 2 mM
Method in brief: as §2

PfCRT^Ecu1110 [4] = molecular target: T2, PfCRT^Ecu1110; assay: cell-based; conditions: […]; for activity at 45000 µM: read-out: [3H]CQ transport, PfCRTEcu1110 (% PfCRTDd2 control), 45 mM VF-6 injected, 0 mM Na+ injection buffer; for activity at 2000 µM: read-out: [3H]CQ transport, PfCRTEcu1110, trans-stimulation, solute 2 mM
Method in brief: as §2

PfNT1 = molecular target: T3, PfNT1 (Plasmodium falciparum, UniProt Q8IDM6); assay: cell-based; conditions: for activity at 2000 µM: read-out: [3H]CQ transport, PfNT1, trans-stimulation, solute 2 mM
T3 construct: expressed in transfected cells; host or cells: Xenopus laevis oocytes (stage V-VI), cRNA-injected
Method in brief: as §2

[5] = read-out: PfCRT-mediated [3H]CQ transport, cis-inhibition (% PfCRTEcu1110 control)
[6] = read-out: [3H]CQ transport (% PfCRTEcu1110 control), cis-inhibition, PfCRTEcu1110, SEM

Sequence of PfCRT^3D7 (Q8IBZ9 59-398): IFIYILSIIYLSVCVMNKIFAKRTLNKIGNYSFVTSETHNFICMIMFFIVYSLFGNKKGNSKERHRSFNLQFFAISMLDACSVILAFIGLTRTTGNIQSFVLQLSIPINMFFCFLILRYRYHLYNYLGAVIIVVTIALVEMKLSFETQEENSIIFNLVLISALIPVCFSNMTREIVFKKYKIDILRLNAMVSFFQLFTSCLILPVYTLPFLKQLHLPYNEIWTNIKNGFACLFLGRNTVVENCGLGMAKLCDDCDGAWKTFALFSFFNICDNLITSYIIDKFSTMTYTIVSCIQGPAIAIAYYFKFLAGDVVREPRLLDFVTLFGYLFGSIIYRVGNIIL
T3 sequence (Q8IDM6 whole entry): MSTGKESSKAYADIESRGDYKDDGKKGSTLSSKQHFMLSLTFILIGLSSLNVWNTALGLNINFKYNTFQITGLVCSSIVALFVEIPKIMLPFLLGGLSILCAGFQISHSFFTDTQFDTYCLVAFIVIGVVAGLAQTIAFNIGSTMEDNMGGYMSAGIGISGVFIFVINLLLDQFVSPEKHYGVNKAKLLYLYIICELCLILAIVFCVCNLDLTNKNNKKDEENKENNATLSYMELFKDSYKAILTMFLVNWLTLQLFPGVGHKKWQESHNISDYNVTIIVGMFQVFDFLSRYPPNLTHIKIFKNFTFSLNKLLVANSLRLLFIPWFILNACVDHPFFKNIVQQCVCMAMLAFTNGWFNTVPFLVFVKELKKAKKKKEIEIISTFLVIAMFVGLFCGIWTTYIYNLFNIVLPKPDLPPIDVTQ
T1 sequence (Q9N623 whole entry A220S/I356T/K76T/M74I/N326S/N75E/Q271E/R371I): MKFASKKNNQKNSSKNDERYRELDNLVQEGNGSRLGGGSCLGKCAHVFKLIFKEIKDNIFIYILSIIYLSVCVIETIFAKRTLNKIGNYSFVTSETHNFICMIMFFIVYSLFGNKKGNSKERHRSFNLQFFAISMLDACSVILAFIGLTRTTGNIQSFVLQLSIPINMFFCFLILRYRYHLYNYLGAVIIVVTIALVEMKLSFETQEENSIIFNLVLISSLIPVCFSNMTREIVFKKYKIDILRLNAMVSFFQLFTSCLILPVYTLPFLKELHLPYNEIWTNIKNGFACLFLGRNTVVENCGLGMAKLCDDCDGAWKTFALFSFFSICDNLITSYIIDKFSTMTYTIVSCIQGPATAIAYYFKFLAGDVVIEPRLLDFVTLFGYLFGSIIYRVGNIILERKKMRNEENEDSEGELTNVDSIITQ
T2 sequence (Q9N623 whole entry A220S/I356L/K76T/N326D): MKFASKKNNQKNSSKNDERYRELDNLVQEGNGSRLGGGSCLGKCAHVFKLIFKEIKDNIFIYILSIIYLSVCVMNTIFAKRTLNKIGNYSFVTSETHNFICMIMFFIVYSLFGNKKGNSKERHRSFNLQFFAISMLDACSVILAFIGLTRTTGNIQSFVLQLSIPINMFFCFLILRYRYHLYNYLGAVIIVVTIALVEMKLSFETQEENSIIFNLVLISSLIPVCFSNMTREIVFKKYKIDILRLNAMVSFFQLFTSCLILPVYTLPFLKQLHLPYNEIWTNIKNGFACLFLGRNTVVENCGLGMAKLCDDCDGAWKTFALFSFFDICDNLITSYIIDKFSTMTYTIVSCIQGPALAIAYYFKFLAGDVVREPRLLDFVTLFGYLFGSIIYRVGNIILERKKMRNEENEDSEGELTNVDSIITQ

VDPVNF [VF-6]
inhibition at 500 µM (PfCRT^Dd2 [1]): 30 ± 1.1%
inhibition at 1000 µM (PfCRT^Dd2 [1]): 21 ± 0.8%
inhibition at 2000 µM (PfCRT^Dd2 [1]): 8.1 ± 0.2%
inhibition at 500 µM (PfCRT^Ecu1110 [2]; [5]): 50 ± 2.4%
inhibition at 1000 µM (PfCRT^Ecu1110 [2]; [5]): 39 ± 4.1%
inhibition at 2000 µM (PfCRT^Ecu1110 [2]; [5]): 26 ± 2.1%
inhibition at 500 µM (PfCRT^Ecu1110 [2]; [6]): 16 ± 0.3%
inhibition at 1000 µM (PfCRT^Ecu1110 [2]; [6]): 12 ± 0.2%
inhibition at 2000 µM (PfCRT^Ecu1110 [2]; [6]): 8 ± 0.04%
[3H]CQ transport, PfCRT3D7 (% PfCRTDd2 control) (PfCRT^3D7; Experiment 1): 22.53 % PfCRTDd2 control
[3H]CQ transport, PfCRT3D7 (% PfCRTDd2 control) (PfCRT^3D7; Experiment 2): 23.78 % PfCRTDd2 control
[3H]CQ transport, PfCRT3D7 (% PfCRTDd2 control) (PfCRT^3D7; Experiment 3): 24.68 % PfCRTDd2 control
[3H]CQ transport, PfCRT3D7 (% PfCRTDd2 control) (PfCRT^3D7; Experiment 4): 25.32 % PfCRTDd2 control
[3H]CQ transport, PfCRT3D7 (% PfCRTDd2 control) (PfCRT^3D7; Experiment 5): 26.32 % PfCRTDd2 control
activity at 5000 µM (PfCRT^3D7; […], read-out: PfCRT-mediated [3H]CQ transport, trans-stimulation (% PfCRT3D7 control), [test solute]i = 5 mM (intracellular), PfCRT3D7 oocytes, normalised to oocyte type control): 147 ± 5.2%
activity at 45000 µM (PfCRT^3D7; […], read-out: PfCRT-mediated [3H]CQ transport, trans-stimulation (% PfCRT3D7 control), [test solute]i = 45 mM (intracellular; 30 mM for some solutes due to solubility), PfCRT3D7 oocytes, normalised to oocyte type control): 195 ± 4.6%
activity at 45000 µM (PfCRT^3D7; […], read-out: [3H]CQ transport, PfCRT3D7 (% PfCRTDd2 control), 45 mM VF-6 injected, 0 mM Na+ injection buffer, Experiment 1): 25.3%
activity at 45000 µM (PfCRT^3D7; […], read-out: [3H]CQ transport, PfCRT3D7 (% PfCRTDd2 control), 45 mM VF-6 injected, 0 mM Na+ injection buffer, Experiment 2): 26.4%
activity at 45000 µM (PfCRT^3D7; […], read-out: [3H]CQ transport, PfCRT3D7 (% PfCRTDd2 control), 45 mM VF-6 injected, 0 mM Na+ injection buffer, Experiment 3): 25.3%
activity at 45000 µM (PfCRT^3D7; […], read-out: [3H]CQ transport, PfCRT3D7 (% PfCRTDd2 control), 45 mM VF-6 injected, 0 mM Na+ injection buffer, Experiment 4): 26.8%
activity at 45000 µM (PfCRT^3D7; […], read-out: [3H]CQ transport, PfCRT3D7 (% PfCRTDd2 control), 45 mM VF-6 injected, 0 mM Na+ injection buffer, Experiment 5): 27.3%
activity at 2000 µM (PfCRT^3D7; […], Experiment 1): 22.9%
activity at 2000 µM (PfCRT^3D7; […], Experiment 2): 19.1%
activity at 2000 µM (PfCRT^3D7; […], Experiment 3): 21.1%
activity at 2000 µM (PfCRT^3D7; […], Experiment 4): 21.8%
[3H]CQ transport, PfCRT3D7 (% PfCRT3D7 control) (PfCRT^3D7; trans-stimulation, Experiment 1): 187.43 % PfCRT3D7 control
[3H]CQ transport, PfCRT3D7 (% PfCRT3D7 control) (PfCRT^3D7; trans-stimulation, Experiment 2): 206.32 % PfCRT3D7 control
[3H]CQ transport, PfCRT3D7 (% PfCRT3D7 control) (PfCRT^3D7; trans-stimulation, Experiment 3): 201.32 % PfCRT3D7 control
[3H]CQ transport, PfCRT3D7 (% PfCRT3D7 control) (PfCRT^3D7; trans-stimulation, Experiment 4): 199.25 % PfCRT3D7 control
[3H]CQ transport (% PfCRT3D7 control), trans-stimulation, PfCRT3D7 (PfCRT^3D7; trans-stimulation, [test solute]i = 5 mM (injected), PfCRT-mediated component (background subtracted), sheet title says normalised to PfCRTDd2 control, mean ± SEM, SEM): 1.7 ± 0.02 % PfCRT3D7 control
activity at 5000 µM (PfCRT^Dd2 [3]; pH 5.5, read-out: PfCRT-mediated [3H]CQ transport, trans-stimulation (% PfCRTDd2 control), [test solute]i = 5 mM (intracellular), PfCRTDd2 oocytes, normalised to oocyte type control): 103 ± 3.1%
activity at 5000 µM (PfCRT^Dd2 [3]; pH 5.5, read-out: [3H]CQ transport (% PfCRTDd2 control), trans-stimulation, PfCRTDd2, trans-stimulation, [test solute]i = 5 mM (injected), PfCRT-mediated component (background subtracted), mean ± SEM, SEM): 103 ± 3.1%
activity at 45000 µM (PfCRT^Dd2 [3]; pH 5.5, read-out: [3H]CQ transport (% PfCRTDd2 control), trans-stimulation, PfCRTDd2, trans-stimulation, [test solute]i = 45 mM (30 mM for some solutes due to solubility), PfCRT-mediated component (background subtracted), mean ± SEM, SEM): 112 ± 2.1%
activity at 2000 µM (PfCRT^Dd2 [3]; Experiment 1): 120%
activity at 2000 µM (PfCRT^Dd2 [3]; Experiment 2): 119%
activity at 2000 µM (PfCRT^Dd2 [3]; Experiment 3): 120%
activity at 2000 µM (PfCRT^Dd2 [3]; Experiment 4): 112%
activity at 5000 µM (PfCRT^Ecu1110 [4]; pH 5.5, read-out: PfCRT-mediated [3H]CQ transport, trans-stimulation (% PfCRTEcu1110 control), [test solute]i = 5 mM (intracellular), PfCRTEcu1110 oocytes, normalised to oocyte type control): 126 ± 2.4%
activity at 45000 µM (PfCRT^Ecu1110 [4]; Experiment 1): 47.7%
activity at 45000 µM (PfCRT^Ecu1110 [4]; Experiment 2): 47.6%
activity at 45000 µM (PfCRT^Ecu1110 [4]; Experiment 3): 50.8%
activity at 45000 µM (PfCRT^Ecu1110 [4]; Experiment 4): 49.2%
activity at 45000 µM (PfCRT^Ecu1110 [4]; Experiment 5): 51.1%
activity at 2000 µM (PfCRT^Ecu1110 [4]; Experiment 1): 44.2%
activity at 2000 µM (PfCRT^Ecu1110 [4]; Experiment 2): 47.3%
activity at 2000 µM (PfCRT^Ecu1110 [4]; Experiment 3): 38.4%
activity at 2000 µM (PfCRT^Ecu1110 [4]; Experiment 4): 45.6%
[3H]CQ transport, PfNT1 (% PfCRTDd2 control) (PfNT1; 45 mM VF-6 injected, 0 mM Na+ injection buffer, Experiment 1): 3.36 % PfCRTDd2 control
[3H]CQ transport, PfNT1 (% PfCRTDd2 control) (PfNT1; 45 mM VF-6 injected, 0 mM Na+ injection buffer, Experiment 2): 3.47 % PfCRTDd2 control
[3H]CQ transport, PfNT1 (% PfCRTDd2 control) (PfNT1; 45 mM VF-6 injected, 0 mM Na+ injection buffer, Experiment 3): 3.88 % PfCRTDd2 control
[3H]CQ transport, PfNT1 (% PfCRTDd2 control) (PfNT1; 45 mM VF-6 injected, 0 mM Na+ injection buffer, Experiment 4): 3.57 % PfCRTDd2 control
[3H]CQ transport, PfNT1 (% PfCRTDd2 control) (PfNT1; 45 mM VF-6 injected, 0 mM Na+ injection buffer, Experiment 5): 3.69 % PfCRTDd2 control
[3H]CQ transport, PfNT1 (% PfCRTDd2 control) (PfNT1; 45 mM VF-6 injected, 96 mM Na+ injection buffer, Experiment 1): 3.72 % PfCRTDd2 control
[3H]CQ transport, PfNT1 (% PfCRTDd2 control) (PfNT1; 45 mM VF-6 injected, 96 mM Na+ injection buffer, Experiment 2): 3.21 % PfCRTDd2 control
[3H]CQ transport, PfNT1 (% PfCRTDd2 control) (PfNT1; 45 mM VF-6 injected, 96 mM Na+ injection buffer, Experiment 3): 3.67 % PfCRTDd2 control
[3H]CQ transport, PfNT1 (% PfCRTDd2 control) (PfNT1; 45 mM VF-6 injected, 96 mM Na+ injection buffer, Experiment 4): 3.45 % PfCRTDd2 control
[3H]CQ transport, PfNT1 (% PfCRTDd2 control) (PfNT1; 45 mM VF-6 injected, 96 mM Na+ injection buffer, Experiment 5): 3.27 % PfCRTDd2 control
activity at 2000 µM (PfNT1; Experiment 1): 2.65%
activity at 2000 µM (PfNT1; Experiment 2): 2.51%
activity at 2000 µM (PfNT1; Experiment 3): 2.61%
activity at 2000 µM (PfNT1; Experiment 4): 2.73%
[3H]CQ transport, PfNT1 (% PfCRTDd2 control) (PfNT1; trans-stimulation, solute 45 mM injected (estimated intracellular), Experiment 1): 2.65 % PfCRTDd2 control
[3H]CQ transport, PfNT1 (% PfCRTDd2 control) (PfNT1; trans-stimulation, solute 45 mM injected (estimated intracellular), Experiment 2): 2.51 % PfCRTDd2 control
[3H]CQ transport, PfNT1 (% PfCRTDd2 control) (PfNT1; trans-stimulation, solute 45 mM injected (estimated intracellular), Experiment 3): 2.61 % PfCRTDd2 control
[3H]CQ transport, PfNT1 (% PfCRTDd2 control) (PfNT1; trans-stimulation, solute 45 mM injected (estimated intracellular), Experiment 4): 2.73 % PfCRTDd2 control
